Like-named read-outs stand apart in the source and are kept apart here.
Experiments:
primary RGCs = assay: Survival of immunopanned primary RGCs in culture; conditions: for RGC survival / neuroprotective activity in culture: immunopanned RGCs, increasing doses, 72 hours in culture; for neuroprotective activity, RGC survival by CellTiter-Glo luminescence: murine purified RGCs, neurotrophin-depleted media, 72 hours, sunitinib as positive control
Protocol: All animal use was in accordance with ARVO Statement for the Use of Animals, and all the experimental procedures were performed in compliance with animal protocols approved by the IACUC at Johns Hopkins University. Retinas were isolated from postnatal 0-5 day mice and dissociated with papain. Microglia was immunodepleted with anti-CD11b conjugated Dynabeads. The suspension of retinal cells were immunopanned on plates pre-conjugated with anti-Thy1.2 antibody (Serotec, Raleigh, N.C.; MCA028) and goat anti-mouse IgM (Jackson Immunoresearch) at room temperature (RT). After washing, RGCs were released from the plate by a cell lifter, counted, and seeded at a density of 10,000 per well in 96-well plates in the media composed of Neurobasal, B27, N2 supplement, L-glutamine, and penicillin/streptomycin. After a 72 hour culture at 37° C., RGCs were stained with calcein AM, ethidium homodimer, and Hoechst 33342. Images were taken from portions of each well with Cellomics Kinetscan or Cellomics ArrayScan VTI HCS Readers (Thermo Fisher), and cell survival was quantified and calculated with the algorithms in Cellomics Neuroprofiling package. As indicated, RGC viability was alternatively measured by CellTiter-Glo luminescence (Promega, Fitchburg, Wis.).
For siRNA-based screening, the siRNAs from the Sigma Mission Mouse Kinome library were complexed with NeuroMag (Oz Biosciences, Marseille, France) at a final concentration of 20 nM. RGCs were then reverse transfected on a stationary magnet and assayed for survival 72 hours later using CellTiter-Glo (Promega). […] Confirmatory siRNAs were obtained from both Dharmacon (Lafayette, Colo.) and Ambion (Carlsbad, Calif.). Adenovirus expressing wildtype or kinase-dead DLK (Robitaille et al., 2004) was added to RGCs at a multiplicity of infection of 100-1000. For small molecule-based screening, serially diluted compounds in DMSO were transferred to 1536 well assay plates by a 23 nL pintool array (Kalypsys, San Diego, Calif.), with a final concentration of 0.057% DMSO for each respective compound concentration. RGCs were cultured for 48 h, and cell viability was analyzed on a plate reader (ViewLux, Perkin Elmer, Waltham, Mass.) using the bioluminescent CellTiterGlo (Promega, Fitchburg, Wis.) assay. Concentration response curves were created using CurveFit (NIH NCATS). The screened libraries include the modified Tocriscreen (1395 compounds) collection, FDA-approved drugs (2814 compounds), LOPAC (1208 compounds) and PTL2/PTL3 (based on pteridin, pyrimidine and quinazoline scaffolds; 2319 compounds).
In order to identify novel neuroprotective agents, a high-content, high-throughput, phenotypic screen was developed using primary RGCs. RGCs were immunopanned from perinatal mice using an antibody against the RGC surface antigen Thy1 (Barres et al., 1988), arrayed into microtiter (96- to 1536-well) plates, and cell survival in the presence of various bioactive small molecules was assayed 72 hours later.

DLK = biological target: T1, DLK (Homo sapiens, UniProt Q12852); conditions: published kinase inhibitor profiles; cited from earlier work
T1 sequence (Q12852 1-859): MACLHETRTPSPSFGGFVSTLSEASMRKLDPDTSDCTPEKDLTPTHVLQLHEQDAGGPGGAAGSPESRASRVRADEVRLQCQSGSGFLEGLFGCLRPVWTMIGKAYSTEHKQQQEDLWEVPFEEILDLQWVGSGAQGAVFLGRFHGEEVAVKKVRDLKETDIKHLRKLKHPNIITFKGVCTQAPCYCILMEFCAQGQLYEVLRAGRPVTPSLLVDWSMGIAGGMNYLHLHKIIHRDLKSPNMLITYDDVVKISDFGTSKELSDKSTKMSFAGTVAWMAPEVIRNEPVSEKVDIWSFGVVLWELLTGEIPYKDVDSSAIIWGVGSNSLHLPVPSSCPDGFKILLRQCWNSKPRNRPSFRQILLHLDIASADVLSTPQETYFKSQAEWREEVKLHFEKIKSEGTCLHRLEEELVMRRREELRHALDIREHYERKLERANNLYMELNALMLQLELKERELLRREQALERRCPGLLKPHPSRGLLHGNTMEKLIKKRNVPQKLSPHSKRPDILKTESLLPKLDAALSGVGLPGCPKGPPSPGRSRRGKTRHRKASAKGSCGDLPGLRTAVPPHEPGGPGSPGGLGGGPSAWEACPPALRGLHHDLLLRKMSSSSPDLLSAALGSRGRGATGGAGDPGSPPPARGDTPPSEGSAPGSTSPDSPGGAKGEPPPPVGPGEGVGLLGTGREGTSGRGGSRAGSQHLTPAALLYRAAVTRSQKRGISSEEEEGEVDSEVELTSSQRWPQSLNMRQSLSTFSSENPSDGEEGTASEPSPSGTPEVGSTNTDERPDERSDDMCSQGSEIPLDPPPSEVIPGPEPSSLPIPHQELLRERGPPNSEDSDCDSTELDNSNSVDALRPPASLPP

MKK4/7 = conditions: published kinase inhibitor profiling; cited from earlier work
optic nerve axons = assay: Rat laser-induced ocular hypertension (glaucoma model), optic nerve axon counts; conditions: for reduction of optic nerve axon loss: intravitreal drug-eluting PLGA microspheres, pretreatment, at one month
Protocol: 6-week old male Wistar rats were anesthetized with ketamine/xylazine. A partial periotomy was made to expose the sclera. The injection site was approximately 1 mm posterior to the ora serrata, and the injection glass pipet was angled towards the optic disc in order to avoid lens injury. 5 μL (10 μg) of PLGA microspheres were injected with a glass pipet and Hamilton syringe.
Intraocular pressure (TOP) was unilaterally elevated by laser treatment of the trabecular meshwork as previously described (Levkovitch-Verbin, H. et al., 2002). Briefly, 6-week old Wistar male rats were anesthetized with ketamine/xylazine. On two consecutive weeks, 40-50 532 nm diode laser spots were applied to the prelimbal region (50 μm diameter, 600 mW power and 0.6 seconds duration). Under anesthesia, the IOP of laser-treated and fellow eyes was measured with TonoLab one and three days after laser treatment. Four weeks following laser treatment, rats were perfused with 4% paraformaldehyde in phosphate buffer. Optic nerves were isolated, postfixed with 1% osmium tetroxide, embedded in epoxy resin and stained with 1% toluidine blue. Images from 10 random and nonoverlapping fields were taken with 100× oil phase contrast objective. The area of entire optic nerve cross-sections were imaged with 10× magnification, and used with axon counts from the 10 field to derive axon counts per nerve. The laser treatment and acquisition of optic nerve images were performed in a masked fashion.
Sunitinib, or its vehicle control, were packaged in poly(lactic-co-glycolic acid) (PLGA)-based, slow-eluting microspheres (Edwards, 1997) and injected intravitreally into Wistar rats.

RGCs = assay: Rat optic nerve transection, RGC survival; format: in vivo, Wistar rats
JNK1/2/3 = conditions: published kinase inhibitor profiling; cited from earlier work
[1] = system: DLK signaling (phosphorylation of MKK7 and JNK); assay: Western blot of DLK pathway members in RGCs; format: cell-based, mouse; conditions: RGCs 4 hours after immunopanning, concentrations that increase RGC survival
Protocol: (§1) The shaded area indicates the toxic range for tozasertib; (B) Western blot of the DLK pathway members in RGCs 4 hours after immunopanning in the presence of 0, 0.03, 0.06, 0.125, 0.25, 0.5, 1 or 2 μM tozasertib; (C) survival of cultured RGCs 72 hours after transfection with DLK (dashed) or nontargeting siRNA (solid) in the presence of increasing doses of tozasertib; and (D) survival of cultured RGCs 48 hours after transduction with DLK expressing adenovirus in the presence of increasing doses of tozasertib. Error bars show standard deviation; and
Western blots were performed according to the standard protocol. The following antibodies were from Cell Signaling Technology (Beverly, Mass.): Phospho-JNK, Thr183/Tyr185 (4671); JNK (9258); Phospho-MKK7 (4171), and MKK7 (4172). Monoclonal anti-alpha-tubulin antibody (T6074) was purchased from Sigma (St. Louis, Mo.), βIII tubulin (TUJ1) from Covance, goat polyclonal Brn3 from C-13, and rabbit anti-Cre from Novus. DLK rabbit polyclonal was provided by S. Hirai.

[2] = system: DLK siRNA-transfected RGCs; assay: Survival of RGCs transfected with DLK or control siRNA in the presence of inhibitor; format: cell-based, mouse; conditions: 72 hours after transfection, increasing doses
Protocol: as §1
(§2) Concentration response curves were created using CurveFit (NIH NCATS).

RGCs overexpressing DLK = assay: Survival of RGCs transduced with DLK-expressing adenovirus in the presence of inhibitor; format: cell-based, mouse
Protocol: as §1, §2

Row | SMILES | RGC survival / neuroprotective activity in culture (primary RGCs) | binding to DLK (DLK) | neuroprotective activity, RGC survival by CellTiter-Glo luminescence (primary RGCs) | other results
1 | C[C@]12O[C@H](C[C@]1(O)CO)n1c3ccccc3c3c4c(c5c6ccccc6n2c5c31)CNC4=O [lestautinib, lestaurtinib] | promoted the survival of primary RGCs in culture | – | – | –
2 | COc1cc(N2CCC(N3CCN(C)CC3)CC2)ccc1Nc1ncc(Cl)c(Nc2ccccc2S(=O)(=O)C(C)C)n1 [TAE-684] | – | reported to bind DLK | – | toxicity in RGC culture (primary RGCs): limited by toxicity at nanomolar doses
3 | CNC(=O)c1ccccc1Sc1ccc2c(/C=C/c3ccccn3)n[nH]c2c1 [axitinib] | promoted the survival of primary RGCs in culture | reported to bind DLK | neuroprotective activity | –
4 | CNC(=O)c1cc(Oc2ccc(NC(=O)Nc3ccc(Cl)c(C(F)(F)F)c3)cc2)ccn1 [sorafenib] | lack neuroprotective activity | – | – | –
5 | C[C@@H](Oc1cc(-c2cnn(C3CCNCC3)c2)cnc1N)c1c(Cl)ccc(F)c1Cl [crizotinib] | promoted the survival of primary RGCs in culture | reported to bind DLK | neuroprotective activity | –
6 | O=C(c1ccc(/C=C/c2n[nH]c3ccccc23)cc1)N1CCNCC1 [KW-2449] | promoted the survival of primary RGCs in culture | reported to bind DLK | neuroprotective activity | –
7 | Cc1nc(Nc2ncc(C(=O)Nc3c(C)cccc3Cl)s2)cc(N2CCN(CCO)CC2)n1 [dasatinib] | – | – | neuroprotective activity | –
8 | CCOc1cc2ncc(C#N)c(Nc3ccc(OCc4ccccn4)c(Cl)c3)c2cc1NC(=O)/C=C/CN(C)C [neratinib] | – | reported to bind DLK | – | toxicity in RGC culture (primary RGCs): limited by toxicity at nanomolar doses
9 | CN(C)S(=O)(=O)c1ccc2c(c1)/C(=C/c1cc3c([nH]1)CCCC3)C(=O)N2 [SU6656] | neuroprotective | – | – | –
10 | Clc1ccc(Nc2nnc(Cc3ccncc3)c3ccccc23)cc1 [vatalanib] | lack neuroprotective activity | – | – | –
11 | Cc1cc(Nc2cc(N3CCN(C)CC3)nc(Sc3ccc(NC(=O)C4CC4)cc3)n2)[nH]n1 [tozasertib] | promoted the survival of primary RGCs in culture | reported to bind DLK | – | RGC survival / neuroprotective activity in culture (primary RGCs; listed as Tozasertib): significant neuroprotective activity; affinity for MKK4/7 (MKK4/7): does not have significant affinity; neuroprotection in glaucoma model (optic nerve axons; intravitreal PLGA microspheres / slow release formulation): protected RGCs; reduction of optic nerve axon loss (optic nerve axons): 39%; surviving RGCs (RGCs; intravitreal PLGA microspheres 7 days before transection, two weeks after transection, vehicle 12.0%): 32.3%; protection of RGCs in optic nerve transection model (RGCs; intravitreal slow release formulation): protected RGCs; affinity for JNK (JNK1/2/3): does not have significant affinity; phosphorylation of targets downstream of DLK, including MKK7 and JNK [1]: decrease in the phosphorylation of targets downstream of DLK; effect on survival of DLK siRNA-transfected RGCs [2]: left-shift of the tozasertib-survival dose-response curve; effect on toxicity / survival with adenoviral-overexpressed DLK (RGCs overexpressing DLK): right-shift of the tozasertib-survival dose-response curve
12 | COc1cc2c(Oc3ccc(NC(=O)C4(C(=O)Nc5ccc(F)cc5)CC4)cc3F)ccnc2cc1OCCCN1CCOCC1 [foretinib] | promoted the survival of primary RGCs in culture | reported to bind DLK | neuroprotective activity | –
13 | COc1cc2nccc(Oc3ccc(NC(=O)C4(C(=O)Nc5ccc(F)cc5)CC4)cc3)c2cc1OC [cabozantinib] | – | – | neuroprotective activity | –
14 | CCN(CC)CCNC(=O)c1c(C)[nH]c(/C=C2\C(=O)Nc3ccc(F)cc32)c1C [sunitinib] | – | – | – | toxicity in RGC culture (primary RGCs; primary RGCs in culture): cytotoxicity at high concentrations; reduction of optic nerve axon loss (optic nerve axons): 40%; increase in surviving RGCs compared to control animals (RGCs; intravitreal PLGA microspheres 7 days before transection, two weeks post-transection): 3-4 fold
15 | Cc1ccc(NC(=O)c2ccc(CN3CCN(C)CC3)cc2)cc1Nc1nccc(-c2cccnc2)n1 [imatinib] | lack neuroprotective activity | – | – | –
16 | COc1cc(Nc2c(C#N)cnc3cc(OCCCN4CCN(C)CC4)c(OC)cc23)c(Cl)cc1Cl [bosutinib] | promoted the survival of primary RGCs in culture | reported to bind DLK | neuroprotective activity | –
